From patent US20220023291A1, “COMPOSITIONS AND METHODS FOR REGULATING INFLAMMATION” (University of Virginia Patent Foundation, priority 2018, published 2022)
“Also recorded” adds a separate entry of the source. One block for each molecule: values may come before it.

Columns and labels:
sigma-1 receptor = sigma-1 receptor (Homo sapiens, UniProt Q99720); details: cited from earlier work
muscarinic receptor = details: cited from earlier work
mice = mice treated with scopolamine, synthetic Aβ oligomer injection, or dizocilpine; cited from earlier work
tau hyperphosphorylation = details: cited from earlier work
[1] = target: T1, IRE1 endonuclease activity (Mus musculus, UniProt Q9EQY0); assay: XBP1 splicing ratio by qPCR in BMDM; assay type: cell-based
T1 construct: We prepared bone marrow derived macrophages (BMDM) from WT and S1R KO mice; endogenous in cells; host or cells: primary mouse bone marrow derived macrophages (WT and S1R KO, C57BL/6J background)
Method: (§1) Tissue culture conditions and Reagents. HEK293 cells, primary lung fibroblasts and BMDM were isolated and maintained as described (41-43). Cells were treated with LPS (Sigma, L4391), 4μ8C (Tocris, 4479), tunicamycin (Tocris, 3516), PD98059 (Medchem Express HY-12028), JSH-23 (Medchem Express, Hy-13982), SP600125 (Medchem Express, HY-12041), cycloheximide (Tocris, 0970), lactacystin (Cayman Chemical, 70980), chloroquine (Fisher, ICN19391925), and STF 083010 (Medchem Express, HY-15845) as described in the text.
cDNA synthesis and quantitative RT-PCR. Total RNA was extracted using an ISOLATE II RNA (Bioline, 52073) and cDNA synthesis was performed with the ISCRIPT™ kit (Bio-Rad, 170-8891). TaqMan Probes were obtained from Life Technologies (GAPDH: Mm99999915_g1; IL-6: Mm00446190_m1; pro-IL-1β: Mm00434228_m1; TNFα: Mm00443258_m1). Primers for IRE1 detection were GCACGUGAAUUGAUAGAGA (SEQ ID NO: 10) and UCUCUAUCAAUUCACGUGC (SEQ ID NO: 11). Primers for the detection of XBP1 were previously published (Lipson et al., 2008). RT-PCR was performed as described previously (Gaultier et al., 2009).
cDNA synthesis and quantitative PCR. Total RNA was extracted using an ISOLATE II RNA kit (Bioline, 52073) and cDNA synthesis was performed with the SENSIFAST™ cDNA synthesis kit (Bioline, BIO-65054). TaqMan Probes were obtained from Thermo Fisher (GAPDH: Mm99999915_g1; IL-6: Mm00446190_m1; pro-IL-1β: Mm00434228_m1; IL10: Mm004396). Primers for the detection of XBP1, IL-8, and actin were previously published (Vandesompele et al., 2002; Kumar & Valdivia, 2008; Girard et al., 2009). qPCR was performed as described previously (Gaultier et al., 2008).

FIP sepsis model mice = assay: Fecal induced peritonitis (FIP); assay type: in vivo, mouse; details: for Survival: 1.5 g/kg fecal slurry
Method: Fecal induced peritonitis (FIP). Fecal material was isolated from the caecum of age- and sex-matched WT animals coming from the UVA vivarium for FIGS. 10A-10D and 10L-10R or from Jackson Laboratory for FIGS. 12D-12O, resuspended in saline and passed through a […] strainer to remove large particles. The slurry was prepared fresh for each experiment. Core body temperature was measured and mice were scored with murine sepsis severity scale by two independent, blinded researchers (Shrum et al., 2014). Blood for serum ELISA was collected from facial vein at 3 hours post FIP induction. Where indicated, fluvoxamine in saline was administered intraperitoneally at a dose of 20 mg/kg, and ceftriaxone in saline was given at a dose of 100 mg/kg subcutaneously.

BMDM = assay: IL-6 ELISA on supernatant of LPS-stimulated BMDM; assay type: cell-based, mouse; details: 1 μg/mL LPS, 6 hours; for Difference in LPS-induced IL-6 secretion between WT and S1R KO BMDM: 20 μM JSH-23, 20 μM PD98059, 1 μM SP600125, 5 μM 4μ8C; for LPS-induced IL-6 secretion: WT and S1R KO BMDM, 20 μM JSH-23, 20 μM PD98059, 1 μM SP600125
Method: as §1
(§2) ELISA. ELISA for IL-6 and TNFα were performed as previously described (Remick et al., 2002). Antibodies used were: anti-mouse IL-6 MP5-20F3 (Biolegend, 504501) 0.5 μg/mL; biotin anti-mouse IL-6 MP5-32C11 (Biolegend, 504601) 1 μg/mL; anti-mouse TNFα (R&D systems, AF-410-NA) 0.5 μg/mL; biotin anti-mouse TNFα (R&D systems, BAF410) 0.25 μg/mL.
Tissue culture conditions and Reagents. HEK293 mTLR4/MD2/CD14 (Invivogen, 293-mtlr4md2cd14), primary lung fibroblasts, and BMDM were isolated and maintained as described (Zhang et al., 2008; Seluanov et al., 2010). Cells and animals were treated with LPS (Sigma, L4391), 4μ8C (Tocris, 4479), APY-29 (Medchem Express HY-17537), PD98059 (Medchem Express HY-12028), JSH-23 (Medchem Express, HY-13982), SP600125 (Medchem Express, HY-12041), STF 083010 (Medchem Express, HY-15845), Fluvoxamine (Medchem Express, HY-B0103A), and Ceftriaxone (Hospira, NDC: 0409-7337-01), as described in the text.
as §2, with “TNF-α” for “TNFα”

LPS challenged mice = assay: In vivo LPS (endotoxin) challenge; design: species or system mouse
Method: Endotoxin challenge. In vivo endotoxin challenge was performed on mice at 8-12 weeks of age. LPS from E. coli 0111:B4 (Sigma-Aldrich, L2630) was injected intraperitoneally as described in the manuscript. STF 083010 (Medchem Express, HY-15845) was resuspended in 33% Kolliphor-EL (Sigma, C5135) and administered intraperitoneally at 30 mg/kg immediately after and again 24 hours after LPS injection.
Peritoneal contents collection. Three hours after LPS injection, peritoneal cavities were washed with 2.5 mL of ice-cold PBS+5 mM EDTA, and then centrifuged to pellet cells. Supernatants were collected for ELISA, and the remaining cells were washed and stored as previously described (Gaultier et al., 2008).
LPS challenge. In vivo LPS challenge was performed on adult mice (8-12 weeks of age). LPS from E. coli 0111:B4 (Sigma-Aldrich, L2630) was injected intraperitoneally, as described in the manuscript. STF083010 (Medchem Express, HY-15845) was resuspended in 33% Kolliphor-EL (Sigma, C5135) and administered intraperitoneally at 30 mg/kg immediately after and again 24 hours after LPS injection. Fluvoxamine was resuspended in saline and administered at 20 mg/kg as indicated in the text. Blood for serum ELISA was collected from facial vein at the peak serum concentration of TNF-α and IL-6 (Copeland et al., 2005a).
Peritoneal exudates collection. Peritoneal cavities content were collected 3 hours after LPS injection in PBS+5 mM EDTA, then centrifuged to pellet cells. Supernatants were collected for ELISA, and cells were washed and stored as previously described (Gaultier et al., 2008).

HEK293 cells = assay: Immunoblot for total IRE1 in HEK293 cells overexpressing IRE1 and S1R; assay type: cell-based; details: 5 μM lactacystin or 30 μM chloroquine, 6 hours
From the text: Western blot. […] Linear level adjustments were applied to entire images to enhance visualization.
Transfection of proteins for overexpression.

[2] = system: heparinized peripheral blood from healthy donors; assay: Human whole blood stimulation ex vivo with LPS, multiplex cytokine analysis; assay type: cell-based; details: 10 ng/mL LPS, 20 μM fluvoxamine, 4 hours
Method: Human whole blood stimulation. Study participants were healthy adults (ages 18-45). The study was approved by the Institutional Review Board at the University of Virginia, and all participants signed informed consent before enrollment. Blood was collected into heparinized vacuum tube, then stimulated with 10 ng/mL LPS+/−20 μM fluvoxamine for 4 hours, as described (Thurm & Halsey, 2005). Cytokine concentrations were determined by multiplex analysis.

[3] = treatment 90 min post FIP induction, fluvoxamine 20 mg/kg i.p. and/or ceftriaxone 100 mg/kg s.c.
[4] = LPS 2 mg/kg co-administered with STF 30 mg/kg
[5] = LPS 2 mg/kg, STF 30 mg/kg i.p. at 0 hours and 24 hours
[6] = LPS 6 mg/kg, fluvoxamine 20 mg/kg at the same time as LPS

Chain of sigma-1 receptor (Q99720 whole entry): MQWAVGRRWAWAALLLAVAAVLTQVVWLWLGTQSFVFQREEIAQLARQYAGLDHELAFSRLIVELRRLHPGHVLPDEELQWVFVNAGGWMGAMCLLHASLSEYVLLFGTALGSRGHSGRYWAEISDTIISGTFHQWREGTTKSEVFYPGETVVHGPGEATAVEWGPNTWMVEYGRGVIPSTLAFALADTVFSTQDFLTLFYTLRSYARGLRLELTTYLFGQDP
T1 sequence (Q9EQY0 21-977): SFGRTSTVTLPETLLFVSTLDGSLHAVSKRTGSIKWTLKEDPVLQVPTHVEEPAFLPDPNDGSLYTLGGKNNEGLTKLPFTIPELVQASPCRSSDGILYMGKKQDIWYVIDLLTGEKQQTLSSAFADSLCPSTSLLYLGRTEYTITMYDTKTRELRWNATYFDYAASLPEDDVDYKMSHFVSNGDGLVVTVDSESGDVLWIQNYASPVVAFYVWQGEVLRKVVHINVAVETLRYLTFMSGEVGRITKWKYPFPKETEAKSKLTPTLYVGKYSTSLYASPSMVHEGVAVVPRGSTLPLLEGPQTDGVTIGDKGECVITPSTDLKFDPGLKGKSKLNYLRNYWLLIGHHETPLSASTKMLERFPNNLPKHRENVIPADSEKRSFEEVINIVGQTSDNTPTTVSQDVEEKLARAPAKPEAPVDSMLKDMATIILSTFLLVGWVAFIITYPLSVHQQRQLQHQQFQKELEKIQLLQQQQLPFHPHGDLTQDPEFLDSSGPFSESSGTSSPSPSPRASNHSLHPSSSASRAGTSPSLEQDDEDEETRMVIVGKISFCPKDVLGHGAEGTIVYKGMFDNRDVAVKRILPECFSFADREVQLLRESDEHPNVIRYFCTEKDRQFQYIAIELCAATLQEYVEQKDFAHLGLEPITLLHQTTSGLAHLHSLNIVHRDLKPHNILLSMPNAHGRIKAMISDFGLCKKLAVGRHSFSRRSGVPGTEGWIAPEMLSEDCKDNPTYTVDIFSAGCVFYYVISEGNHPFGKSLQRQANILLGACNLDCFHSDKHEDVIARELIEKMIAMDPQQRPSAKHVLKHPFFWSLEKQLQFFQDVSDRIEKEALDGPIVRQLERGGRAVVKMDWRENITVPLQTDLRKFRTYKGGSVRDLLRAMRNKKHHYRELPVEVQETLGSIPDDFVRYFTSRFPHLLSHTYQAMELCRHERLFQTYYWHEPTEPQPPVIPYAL

Molecule: CN(C)CC1CCOC1(c1ccccc1)c1ccccc1.Cl (centres unmarked) [ANAVEX® 2-73, tetrahydro-N,N-dimethyl-2,2-diphenyl-3-furanmethanamine hydrochloride]
Affinity for / binding to sigma-1 receptor (S1R) (sigma-1 receptor): high nanomolar range
Binding to the muscarinic receptor (muscarinic receptor): low micromolar range
Memory and neuroprotection effects (mice): memory-preserving and neuroprotective effects
Tau hyperphosphorylation (tau hyperphosphorylation): may block tau hyperphosphorylation

XBP1 splicing amounts after forced IRE1 activation ([1]; WT vs S1R KO BMDM, activator of IRE1, 6 hours): equal in both genotypes
Molecule: c1cc(Nc2cc(C3CC3)[nH]n2)nc(Nc2ccc3nc[nH]c3c2)n1 [APY29]

Molecule: CO/N=C(\C(=O)N[C@@H]1C(=O)N2C(C(=O)O)=C(CSc3nc(=O)c(=O)[nH]n3C)CS[C@H]12)c1csc(N)n1 [Ceftriaxone]
Survival (FIP sepsis model mice; [3]): enhancing survival

Molecule: Cc1ccc(NCCCc2ccccc2)c(N)c1 [JSH-23]
Difference in LPS-induced IL-6 secretion between WT and S1R KO BMDM (BMDM): did not eliminate the difference
LPS-induced IL-6 secretion (BMDM): reduced LPS-induced IL-6 secretion

Molecule: COc1cccc(-c2cc(=O)c3ccccc3o2)c1N [PRESENTLY DISCLOSED 98059]
Difference in LPS-induced IL-6 secretion between WT and S1R KO BMDM (BMDM): without altering the ability of S1R KO BMDM to produce more IL-6
LPS-induced IL-6 secretion (BMDM): significant decrease in IL-6 production

Molecule: O=S(=O)(N=Cc1c(O)ccc2ccccc12)c1cccs1 [STF, N-[(2-Hydroxy-1-naphthalenyl)methylene]-2-thiophenesulfonamide]
Blocking IL-6 secretion in S1R KO BMDM stimulated with LPS (BMDM; STF 083010 (60 μM) compared with 4μ8C (5 μM), FIG. 7A): as effective as 4μ8C
IRE1 inhibitor effectiveness (IL-6 ELISA, FIG. 11C) (BMDM; BMDM, 20 μM STF): effective IRE1 inhibitor
Median survival of S1R KO mice (LPS challenged mice; [4]): 113 h
Mortality of S1R KO mice (LPS challenged mice; [4]): 62.5%
LPS induced mortality / survival of S1R KO mice (LPS challenged mice; [5]): largely rescued; also recorded: spared KO mice from LPS induced mortality; also recorded: clear benefit in S1R KO survival
Survival of WT mice (LPS challenged mice; [5]): did not significantly affect the survival of WT mice
Serum IL-6 (LPS challenged mice; S1R KO mice, LPS 2 mg/kg, STF 30 mg/kg i.p., serum 3 hours after LPS): significantly decreased serum IL-6; also recorded: trend toward decreased IL-6
IL-6 in the peritoneal exudate (LPS challenged mice; S1R KO mice, LPS 2 mg/kg, STF 30 mg/kg, 3 hours after LPS): corrected by STF treatment

Molecule: CCN(CC)CCCC(C)Nc1ccnc2cc(Cl)ccc12 (centres unmarked) [chloroquine]
Rescue of IRE1 protein levels in the presence of S1R overexpression (HEK293 cells): Neither lactacystin nor chloroquine treatment could rescue IRE1 protein levels

Molecule: COCCCC/C(=N\OCCN)c1ccc(C(F)(F)F)cc1 [fluvoxamine]
Affinity for / binding to sigma-1 receptor (S1R) (sigma-1 receptor): low-nanomolar affinity; also recorded: high affinity
Rectal temperature (LPS challenged mice; C57BL/6J, 24 hours after LPS, fluvoxamine 90 min post LPS challenge): improved
Clinical score (total murine sepsis score) (LPS challenged mice; C57BL/6J, LPS 6 mg/kg, fluvoxamine 90 min post LPS challenge): improved
Survival (LPS challenged mice; C57BL/6J, LPS 6 mg/kg, therapeutic fluvoxamine 90 min post LPS challenge): significantly enhanced survival
Mortality of S1R KO animals (LPS challenged mice; [6]): no significant effect
Mortality of WT mice (LPS challenged mice; [6]): significantly protected WT mice from mortality
Serum IL-6 in S1R KO animals (LPS challenged mice; [6]): no significant effect
Serum IL-6 in WT mice (LPS challenged mice; LPS 6 mg/kg, fluvoxamine 20 mg/kg at the same time as LPS, 3 hours after LPS): reduced serum IL-6
Breadth of modulation of inflammatory mediators (FIG. 14) [2]: limited to a subset of inflammatory mediators
IL-8 production [2]: decreased
LPS-induced IL-1β [2]: significantly reduced
LPS-induced IL-6 [2]: significantly reduced
LPS-induced IL-12 p40 [2]: significantly reduced
Survival (FIP sepsis model mice; therapeutic fluvoxamine 30 min post FIP induction): significantly enhanced survival
Survival (FIP sepsis model mice; [3]): as efficacious in enhancing survival as Ceftriaxone
Rectal temperature (FIP sepsis model mice; C57BL/6J, 24 hours after FIP induction, fluvoxamine 30 min post FIP induction): improved
Clinical score (total murine sepsis score) (FIP sepsis model mice; C57BL/6J, fluvoxamine 30 min post FIP induction): improved

Molecule: CC(=O)N[C@@H](CSC(=O)[C@]1([C@@H](O)C(C)C)NC(=O)[C@H](C)[C@@H]1O)C(=O)O [lactacystin]
Rescue of IRE1 protein levels in the presence of S1R overexpression (HEK293 cells): Neither lactacystin nor chloroquine treatment could rescue IRE1 protein levels

Molecule: tunicamycin
XBP1 splicing after tunicamycin ([1]; S1R KO vs WT BMDM, 5 μM tunicamycin, 6 hours): elevated XBP1 splicing in S1R KO BMDM
